Experimental data as given in ChEMBL document CHEMBL1201862, “PubChem BioAssay data set” (2004).
Active and inactive are the calls of the source.

What was measured:
[1] = A cytotoxicity screen of small molecule inhibitors of the PhoP region in Salmonella typhi identified in the primary screen. [Related pubchem assays: 1850, 1864, 1985 ]; assay type: functional
Procathepsin L = Procathepsin L (Homo sapiens, UniProt P07711)
Aspartyl aminopeptidase = molecular target: T1, Aspartyl aminopeptidase (Plasmodium falciparum 3D7, UniProt Q8I2J3)
T1 sequence (Q8I2J3 whole entry): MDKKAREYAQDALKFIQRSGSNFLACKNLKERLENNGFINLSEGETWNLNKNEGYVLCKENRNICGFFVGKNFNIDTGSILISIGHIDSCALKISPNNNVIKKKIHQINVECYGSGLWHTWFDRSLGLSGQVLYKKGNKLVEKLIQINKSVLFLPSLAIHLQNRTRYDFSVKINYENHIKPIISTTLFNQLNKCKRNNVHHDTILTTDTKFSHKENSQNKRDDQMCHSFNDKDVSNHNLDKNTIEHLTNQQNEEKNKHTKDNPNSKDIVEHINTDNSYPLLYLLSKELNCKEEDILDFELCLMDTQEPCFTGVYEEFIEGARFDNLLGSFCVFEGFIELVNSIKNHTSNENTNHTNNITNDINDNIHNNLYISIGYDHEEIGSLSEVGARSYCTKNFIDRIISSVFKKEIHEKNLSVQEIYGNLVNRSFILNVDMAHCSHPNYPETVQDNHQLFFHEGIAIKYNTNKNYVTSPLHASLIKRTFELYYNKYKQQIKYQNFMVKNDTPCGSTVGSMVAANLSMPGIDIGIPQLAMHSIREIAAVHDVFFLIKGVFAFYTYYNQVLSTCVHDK

[2] = Luminescence Cell-Based Dose Response HTS to Identify Inhibitors of 5'UTR Stem-Loop Driven Prion Protein mRNA Translation in H4 Neuroglioblastoma Cells. [Related pubchem assays: 1827 (Project Summary), 1813 (Primary HTS)]; assay type: functional
[3] = alpha-synuclein stem-loop luciferase translation blockers – H4 neuroglioma cells, luminescence, confirmation (AID 1988); assay type: functional, cell-based
[4] = luciferase reporter signal suppression in cells – H4 neuroglioma cells, luminescence, dose response (AID 1990); assay type: functional, cell-based
[5] = molecular target: T2, RNA-binding protein pos-1 (Caenorhabditis elegans, UniProt G5EF15); assay: disruptors of C. elegans POS-1 RNA interaction – biochemical, fluorescence polarization, dose response (AID 1964);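 note: purified POS-1 fused to maltose binding protein made in E. coli; potency of compounds blocking POS-1 binding to fluorescent RNA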
T2 sequence (G5EF15 whole entry): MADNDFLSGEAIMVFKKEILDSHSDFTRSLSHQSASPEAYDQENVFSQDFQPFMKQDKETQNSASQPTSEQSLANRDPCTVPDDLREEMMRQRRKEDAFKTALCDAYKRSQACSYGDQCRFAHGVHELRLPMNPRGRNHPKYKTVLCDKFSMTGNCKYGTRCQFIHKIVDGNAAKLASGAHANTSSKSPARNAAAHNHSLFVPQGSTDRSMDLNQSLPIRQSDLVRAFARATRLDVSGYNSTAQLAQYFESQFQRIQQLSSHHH

[6] = molecular target: Heat shock protein HSP 90-alpha (Homo sapiens, UniProt P07900); assay: Luminescence-based dose response biochemical high throughput screening assay for inhibitors of the Heat Shock Protein 90 (HSP90). [Related pubchem assays: 1831 (Summary AID.), 1846 (Confirmation screen.), 1789 (Primary screen.)]
[7] = molecular target: Glyceraldehyde-3-phosphate dehydrogenase (Homo sapiens, UniProt P04406)
HT-1080 = assay: HT1080 cell viability loss – fluorescence readout (AID 620); assay type: functional, cell-based; conditions: Homo sapiens
[8] = HEK-293T cell viability reduction – luminescence, B-cell screen hits, cytotoxicity control for BCR NF-kB inhibitor project, dose response (AID 489021); assay type: functional, cell-based;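 note: HEK-293T cells carrying an NF-kB luciferase reporter; cells exposed to compound for about 14 hours before viability readout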
[9] = molecular target: Luciferin 4-monooxygenase (Photinus pyralis, UniProt P08659); assay: Counter Screen for Luciferase-based Assay Positives. [Related pubchem assays: 620, 618, 411 ]
[10] = molecular target: T3, Zinc finger protein mex-5 (Caenorhabditis elegans, UniProt Q9XUB2); assay: potency of MEX-5 RNA-binding blockers – biochemical, C. elegans, fluorescence polarization, dose response (AID 1960)
T3 sequence (Q9XUB2 whole entry): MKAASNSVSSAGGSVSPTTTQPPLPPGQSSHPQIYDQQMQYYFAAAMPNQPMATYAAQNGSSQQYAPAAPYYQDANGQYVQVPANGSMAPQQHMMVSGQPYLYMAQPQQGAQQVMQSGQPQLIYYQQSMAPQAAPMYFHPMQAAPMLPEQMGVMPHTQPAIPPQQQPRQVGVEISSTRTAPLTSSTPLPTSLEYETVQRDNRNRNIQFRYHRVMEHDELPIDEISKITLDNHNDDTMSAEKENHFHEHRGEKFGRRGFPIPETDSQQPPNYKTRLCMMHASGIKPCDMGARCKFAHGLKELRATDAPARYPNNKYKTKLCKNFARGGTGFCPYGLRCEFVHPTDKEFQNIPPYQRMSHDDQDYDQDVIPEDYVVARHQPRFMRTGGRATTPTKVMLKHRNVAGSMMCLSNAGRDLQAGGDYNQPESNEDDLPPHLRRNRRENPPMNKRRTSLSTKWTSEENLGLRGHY

Cytochrome P450 2C19 = Cytochrome P450 2C19 (Homo sapiens, UniProt P33261); assay: Cytochrome panel assay with activity outcomes. Panel member name: p450-cyp2c19 Compounds with AC50 equal or less than 10 uM are considered active; assay type: functional; conditions: read-out: AC50
Cytochrome P450 2D6 = Cytochrome P450 2D6 (Homo sapiens, UniProt P10635);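 note: CYP2D6 member of a cytochrome P450 panel assay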
[11] = molecular target: T4, Acyl-homoserine lactone acylase PvdQ (Pseudomonas aeruginosa (strain LESB58), UniProt Q9I194); assay: PvdQ acylase enzyme activity blockers – biochemical, fluorescence, plate reader and imaging, cherry-picks, dose response (AID 493231)
T4 sequence (Q9I194 whole entry): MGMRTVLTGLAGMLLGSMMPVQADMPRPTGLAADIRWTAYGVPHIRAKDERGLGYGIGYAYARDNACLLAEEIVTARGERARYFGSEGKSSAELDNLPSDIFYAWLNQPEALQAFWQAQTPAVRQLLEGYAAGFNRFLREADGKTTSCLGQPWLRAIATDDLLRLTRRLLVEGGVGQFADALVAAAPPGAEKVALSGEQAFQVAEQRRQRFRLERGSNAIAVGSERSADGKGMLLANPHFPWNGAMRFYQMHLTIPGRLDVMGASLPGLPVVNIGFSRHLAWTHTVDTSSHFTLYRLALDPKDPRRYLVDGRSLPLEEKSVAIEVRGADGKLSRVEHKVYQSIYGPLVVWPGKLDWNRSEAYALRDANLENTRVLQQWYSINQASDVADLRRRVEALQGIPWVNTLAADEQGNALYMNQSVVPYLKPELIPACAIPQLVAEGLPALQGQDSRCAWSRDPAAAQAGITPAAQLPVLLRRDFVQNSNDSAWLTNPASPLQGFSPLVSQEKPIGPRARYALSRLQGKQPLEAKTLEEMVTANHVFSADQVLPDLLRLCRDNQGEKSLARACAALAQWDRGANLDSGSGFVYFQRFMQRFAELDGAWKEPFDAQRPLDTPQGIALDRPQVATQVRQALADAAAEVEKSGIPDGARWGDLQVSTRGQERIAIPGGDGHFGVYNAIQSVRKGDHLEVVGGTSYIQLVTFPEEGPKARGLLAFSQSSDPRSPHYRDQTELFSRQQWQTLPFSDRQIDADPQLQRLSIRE

[12] = test system: Streptococcus sp. 'group A'; assay: Streptococcus pyogenes SK(-)GAS viability under kanamycin – luminescence, BacTiterGlo, confirmation, counter-screen for streptokinase expression inhibitor project, dose response (AID 1900); assay type: functional, organism-based
Streptokinase A = molecular target: T5, Streptokinase A (Streptococcus pyogenes serotype M1, UniProt P10520); assay: viability-normalized secreted streptokinase activity reduction – plasminogen activation absorbance, OD405, dose response (AID 1914); assay type: functional, Streptococcus pyogenes M1 GAS;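 note: secreted streptokinase activity via plasminogen activation per viability signal from cell pellet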
T5 sequence (P10520 whole entry): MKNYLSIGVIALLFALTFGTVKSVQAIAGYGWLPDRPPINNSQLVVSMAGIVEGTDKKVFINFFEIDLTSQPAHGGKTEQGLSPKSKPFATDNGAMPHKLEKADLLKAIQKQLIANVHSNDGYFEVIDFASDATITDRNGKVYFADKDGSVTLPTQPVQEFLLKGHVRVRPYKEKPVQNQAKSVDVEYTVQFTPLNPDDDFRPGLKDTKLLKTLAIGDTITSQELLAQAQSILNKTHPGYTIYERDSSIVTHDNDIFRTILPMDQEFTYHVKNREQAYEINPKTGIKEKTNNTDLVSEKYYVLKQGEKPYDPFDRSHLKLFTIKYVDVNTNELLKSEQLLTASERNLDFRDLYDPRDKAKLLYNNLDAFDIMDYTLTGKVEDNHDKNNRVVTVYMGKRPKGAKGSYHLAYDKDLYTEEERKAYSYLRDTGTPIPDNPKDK

Streptococcus = assay: GAS UMAA2166 growth inhibition – luminescence, BacTiterGlo, counter-screen for streptokinase expression inhibitor project, dose response (AID 1915); assay type: functional, organism-based;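 note: potency for reduction of bacterial viability or growth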
X-box-binding protein 1 = molecular target: T6, X-box-binding protein 1 (Homo sapiens, UniProt P17861); assay type: functional, Cricetulus griseus;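 note: confirmatory dose-response counter-screen serving a CHOP assay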
T6 sequence (P17861 whole entry): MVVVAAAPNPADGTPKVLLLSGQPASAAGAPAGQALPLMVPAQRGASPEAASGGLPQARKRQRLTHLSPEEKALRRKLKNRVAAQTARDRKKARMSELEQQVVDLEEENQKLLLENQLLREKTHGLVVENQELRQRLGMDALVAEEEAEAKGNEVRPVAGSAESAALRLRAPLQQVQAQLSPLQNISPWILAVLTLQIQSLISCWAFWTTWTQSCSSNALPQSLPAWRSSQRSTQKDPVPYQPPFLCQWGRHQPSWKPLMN

Trypsin = Trypsin (Sus scrofa, UniProt P00761); assay: trypsin protease activity blockade – biochemical, quenched peptide fluorescence, cherry-pick, selectivity assay for Rce1 protease inhibitor project, dose response (AID 488789)
[13] = molecular target: DNA dC->dU-editing enzyme APOBEC-3G (Homo sapiens, UniProt Q9HC16); assay: Dose Response confirmation of small molecule APOBEC3G DNA Deaminase Inhibitors via a fluorescence-based single-stranded DNA deaminase assay. [Related pubchem assays (depositor defined):AID493012, AID493028]; assay type: functional
SUMO-activating enzyme [14] = molecular target: T7, SUMO-activating enzyme (Homo sapiens, UniProt Q9UBT2); assay: blockers of UBC9-mediated SUMO conjugation – biochemical, AlphaScreen, SUMOylation inhibitor project, confirmation (AID 2018); assay type: functional
SUMO-activating enzyme [15] = molecular target: T7, SUMO-activating enzyme; assay: blockers of SAE1/SAE2–UBC9 SUMO transfer – biochemical, HTRF, uHTS, primary screen (AID 2006); assay type: protein-complex assay
[16] = molecular target: Induced myeloid leukemia cell differentiation protein Mcl-1 (Homo sapiens, UniProt Q07820); assay type: functional
Chain of Induced myeloid leukemia cell differentiation protein Mcl-1 (Q07820 whole entry): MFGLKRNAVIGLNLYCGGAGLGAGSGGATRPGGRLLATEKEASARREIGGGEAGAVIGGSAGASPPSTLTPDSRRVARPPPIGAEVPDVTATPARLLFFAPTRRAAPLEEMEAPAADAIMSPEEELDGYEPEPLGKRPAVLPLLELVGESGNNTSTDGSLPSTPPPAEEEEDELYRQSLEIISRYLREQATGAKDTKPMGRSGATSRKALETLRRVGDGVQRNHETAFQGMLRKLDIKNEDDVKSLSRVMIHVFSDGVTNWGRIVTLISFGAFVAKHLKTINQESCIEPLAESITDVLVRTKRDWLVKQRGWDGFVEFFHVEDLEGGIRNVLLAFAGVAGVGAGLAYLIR

Chain of Procathepsin L (P07711 whole entry): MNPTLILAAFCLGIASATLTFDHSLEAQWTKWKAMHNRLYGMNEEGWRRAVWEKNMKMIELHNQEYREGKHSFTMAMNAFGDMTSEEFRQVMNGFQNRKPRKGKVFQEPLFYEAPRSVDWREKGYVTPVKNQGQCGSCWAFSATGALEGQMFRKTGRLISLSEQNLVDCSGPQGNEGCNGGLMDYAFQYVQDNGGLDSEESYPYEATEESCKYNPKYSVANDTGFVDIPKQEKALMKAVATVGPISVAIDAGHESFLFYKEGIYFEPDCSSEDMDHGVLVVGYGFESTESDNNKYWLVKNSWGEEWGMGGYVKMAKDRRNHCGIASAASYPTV
T7 sequence (Q9UBE0 whole entry): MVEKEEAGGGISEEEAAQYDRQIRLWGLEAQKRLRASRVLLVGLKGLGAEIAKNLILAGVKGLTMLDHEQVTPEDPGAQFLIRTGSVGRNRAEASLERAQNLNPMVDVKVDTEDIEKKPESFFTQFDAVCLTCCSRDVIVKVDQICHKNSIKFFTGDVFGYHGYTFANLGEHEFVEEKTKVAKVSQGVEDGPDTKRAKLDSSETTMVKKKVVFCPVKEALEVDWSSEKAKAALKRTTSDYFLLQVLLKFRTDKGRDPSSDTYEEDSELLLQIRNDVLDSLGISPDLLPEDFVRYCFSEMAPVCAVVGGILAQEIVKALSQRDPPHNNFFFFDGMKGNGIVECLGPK
T7 sequence (Q9UBT2 whole entry): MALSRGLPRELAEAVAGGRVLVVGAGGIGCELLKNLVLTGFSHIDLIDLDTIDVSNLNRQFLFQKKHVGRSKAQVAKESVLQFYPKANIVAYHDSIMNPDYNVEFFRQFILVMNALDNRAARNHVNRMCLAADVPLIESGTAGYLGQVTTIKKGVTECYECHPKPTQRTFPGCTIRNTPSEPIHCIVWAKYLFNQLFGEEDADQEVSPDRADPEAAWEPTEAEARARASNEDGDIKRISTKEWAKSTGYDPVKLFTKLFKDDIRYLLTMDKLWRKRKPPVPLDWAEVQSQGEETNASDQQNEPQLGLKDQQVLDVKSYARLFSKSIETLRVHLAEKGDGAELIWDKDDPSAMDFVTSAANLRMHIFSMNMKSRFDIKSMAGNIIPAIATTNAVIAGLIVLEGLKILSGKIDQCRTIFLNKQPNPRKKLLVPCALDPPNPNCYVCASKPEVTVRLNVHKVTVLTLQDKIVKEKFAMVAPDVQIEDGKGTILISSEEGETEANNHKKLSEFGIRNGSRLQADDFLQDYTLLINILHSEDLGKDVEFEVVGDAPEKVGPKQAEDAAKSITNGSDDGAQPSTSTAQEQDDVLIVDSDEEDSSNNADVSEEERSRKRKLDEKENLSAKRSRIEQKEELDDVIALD
Chain of Trypsin (P00761 whole entry): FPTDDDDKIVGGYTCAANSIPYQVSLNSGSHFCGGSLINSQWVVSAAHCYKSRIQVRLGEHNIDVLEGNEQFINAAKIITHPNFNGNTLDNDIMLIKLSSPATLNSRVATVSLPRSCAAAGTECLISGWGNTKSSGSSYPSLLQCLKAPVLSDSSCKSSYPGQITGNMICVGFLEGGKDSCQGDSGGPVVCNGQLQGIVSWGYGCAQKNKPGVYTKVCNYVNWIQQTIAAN
Chain of DNA dC->dU-editing enzyme APOBEC-3G (Q9HC16 whole entry): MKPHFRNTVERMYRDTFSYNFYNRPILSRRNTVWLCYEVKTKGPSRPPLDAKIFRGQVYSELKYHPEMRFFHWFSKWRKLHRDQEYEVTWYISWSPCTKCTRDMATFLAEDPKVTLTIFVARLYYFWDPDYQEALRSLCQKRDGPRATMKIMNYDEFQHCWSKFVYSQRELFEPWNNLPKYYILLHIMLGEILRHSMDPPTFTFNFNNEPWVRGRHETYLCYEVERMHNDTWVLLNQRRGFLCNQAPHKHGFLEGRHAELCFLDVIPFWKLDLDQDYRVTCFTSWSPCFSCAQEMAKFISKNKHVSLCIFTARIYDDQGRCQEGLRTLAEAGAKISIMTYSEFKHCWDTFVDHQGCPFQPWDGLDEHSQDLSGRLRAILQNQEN
Chain of Cytochrome P450 2D6 (P10635 whole entry): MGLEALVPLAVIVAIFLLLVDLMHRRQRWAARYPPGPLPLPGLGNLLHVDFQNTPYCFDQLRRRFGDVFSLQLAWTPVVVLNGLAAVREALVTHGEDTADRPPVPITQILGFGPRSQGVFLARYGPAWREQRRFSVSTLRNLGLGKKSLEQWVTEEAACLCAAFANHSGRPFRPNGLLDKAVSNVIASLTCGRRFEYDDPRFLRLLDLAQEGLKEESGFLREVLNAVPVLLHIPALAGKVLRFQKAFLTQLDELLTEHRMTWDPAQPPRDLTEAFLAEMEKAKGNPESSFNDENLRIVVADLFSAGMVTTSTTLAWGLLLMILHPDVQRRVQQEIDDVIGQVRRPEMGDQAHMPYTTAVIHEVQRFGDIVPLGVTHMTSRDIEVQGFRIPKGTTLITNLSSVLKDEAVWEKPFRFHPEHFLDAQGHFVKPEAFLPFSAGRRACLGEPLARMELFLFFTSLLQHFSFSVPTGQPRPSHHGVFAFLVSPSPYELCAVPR
Chain of Glyceraldehyde-3-phosphate dehydrogenase (P04406 whole entry): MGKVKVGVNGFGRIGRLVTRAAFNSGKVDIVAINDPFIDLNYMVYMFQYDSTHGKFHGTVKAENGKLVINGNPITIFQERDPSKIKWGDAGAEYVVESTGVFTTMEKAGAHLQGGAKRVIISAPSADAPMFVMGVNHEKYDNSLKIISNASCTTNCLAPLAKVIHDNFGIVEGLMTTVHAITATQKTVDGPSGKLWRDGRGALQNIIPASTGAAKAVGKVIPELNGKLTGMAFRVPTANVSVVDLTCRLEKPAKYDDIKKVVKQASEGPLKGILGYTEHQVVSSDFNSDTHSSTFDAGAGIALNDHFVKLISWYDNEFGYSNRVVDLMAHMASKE
Chain of Luciferin 4-monooxygenase (P08659 whole entry): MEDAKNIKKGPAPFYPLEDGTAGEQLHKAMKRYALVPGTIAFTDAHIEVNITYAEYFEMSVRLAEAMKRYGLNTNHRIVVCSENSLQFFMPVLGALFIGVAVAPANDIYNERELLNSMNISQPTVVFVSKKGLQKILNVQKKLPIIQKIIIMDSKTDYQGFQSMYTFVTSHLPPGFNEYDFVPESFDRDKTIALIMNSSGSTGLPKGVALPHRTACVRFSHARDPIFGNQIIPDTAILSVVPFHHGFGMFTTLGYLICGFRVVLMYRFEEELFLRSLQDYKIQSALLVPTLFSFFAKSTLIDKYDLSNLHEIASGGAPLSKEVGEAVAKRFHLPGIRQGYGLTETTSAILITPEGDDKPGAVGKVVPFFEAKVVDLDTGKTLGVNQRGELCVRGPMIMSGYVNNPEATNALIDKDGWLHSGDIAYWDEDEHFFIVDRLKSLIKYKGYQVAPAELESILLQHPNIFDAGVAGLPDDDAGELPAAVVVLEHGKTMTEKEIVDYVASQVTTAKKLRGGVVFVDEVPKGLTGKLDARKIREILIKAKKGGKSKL
Chain of Cytochrome P450 2C19 (P33261 whole entry): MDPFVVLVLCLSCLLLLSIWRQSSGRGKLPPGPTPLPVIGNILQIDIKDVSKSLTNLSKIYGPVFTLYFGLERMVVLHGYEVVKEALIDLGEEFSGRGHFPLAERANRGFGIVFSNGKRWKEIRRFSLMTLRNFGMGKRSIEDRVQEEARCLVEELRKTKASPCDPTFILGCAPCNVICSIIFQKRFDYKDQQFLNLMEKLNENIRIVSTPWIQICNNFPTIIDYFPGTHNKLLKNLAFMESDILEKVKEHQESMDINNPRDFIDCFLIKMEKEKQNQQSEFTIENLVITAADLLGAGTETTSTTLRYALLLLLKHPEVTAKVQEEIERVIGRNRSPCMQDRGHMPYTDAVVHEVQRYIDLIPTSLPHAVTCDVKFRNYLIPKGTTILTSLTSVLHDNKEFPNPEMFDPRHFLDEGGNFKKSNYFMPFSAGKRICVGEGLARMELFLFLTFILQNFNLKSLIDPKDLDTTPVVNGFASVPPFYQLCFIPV

Cc1ccc(OCCCCn2c(CO)nc3ccccc32)cc1
EC50 [1]: > 50 µM (active)

COc1ccc(N2C(=O)/C(=C\Nn3cnnc3)c3ccccc3C2=O)cc1
IC50 (Procathepsin L): > 59.6 µM (not active) | IC50 (Aspartyl aminopeptidase): 1.56 µM (active)

CCN(CC)c1ccc2cc(NC(=O)CCC(=O)O)c(=O)oc2c1
EC50 [2]: 3.7 µM (active) | EC50 [3]: 0.491 µM (active) | EC50 [4]: < 0.1 µM (active) | EC50 [5]: 120 µM (inconclusive) | IC50 [6]: > 60 µM (not active) | IC50 [7]: > 100 µM (not active) | EC50 (HT-1080): > 50 µM (not active) | IC50 [8]: > 80 µM (inactive) | EC50 [9]: > 100 µM (not active) | EC50 [10]: 7.36 µM (active)

CCOC(=O)c1ccc(S(=O)(=O)N2CCN(CCC#N)CC2)cc1
EC50 [1]: > 50 µM (active)

COc1ccc(/C=C/C(=O)c2ccoc2)cc1
AC50 (Cytochrome P450 2C19): 14.1 µM (inconclusive) | AC50 (Cytochrome P450 2D6): 25.1 µM (inconclusive) | AC50 [11]: 11.4 µM (active)

CCc1nc2c(cnn2-c2ccc(Cl)cc2)c(=O)n1-c1ccc(OC)cc1
EC50 [12]: 28.3 µM (active) | EC50 (Streptokinase A): > 150 µM (not active) | EC50 (Streptococcus): > 150 µM (not active) | Absolute IC50 (XBP1) (X-box-binding protein 1): 10 µM

COc1ccc(S(=O)(=O)NCC2CCCO2)cc1NC(=O)c1ccccc1F (centres undefined)
AC50 (Trypsin): 33 µM (active)

S=C(Nc1cc(Cl)ccc1Cl)Nn1cnnc1
IC50 (Procathepsin L): > 59.6 µM (not active) | IC50 (Aspartyl aminopeptidase): 0.662 µM (active)

CCOC(=O)c1c(NC(=O)c2ccccc2Cl)sc2c1CCc1ccccc1-2
IC50 [13]: > 100 µM (inactive)

FC(F)C(F)(F)C(F)(F)C(F)(F)c1cc(-c2ccccc2)[nH]n1
Absolute IC50 (XBP1) (X-box-binding protein 1): 10 µM

O=C(Nc1cc(Cl)ccc1Cl)Nn1cnnc1
IC50 (Procathepsin L): > 59.6 µM (not active) | IC50 (Aspartyl aminopeptidase): 0.5 µM (active)

N=C1S/C(=C\c2ccco2)C(=O)N1c1ccc2c(c1)OCO2
IC50 (SUMO-activating enzyme [14]): 13.4 µM (active) | IC50 (SUMO-activating enzyme [15]): 39.9 µM (active) | IC50 [16]: 9.96 µM (active)

Cc1cc(S(=O)(=O)NCC2CC2)c(Cl)cc1Cl
AC50 [11]: 1.1 µM (active)

COc1ccc(-c2ccc(OC)cc2)cc1
AC50 [11]: 78.8 µM (active)

O=c1c2ccccc2[nH]c2ccc(F)cc12
EC50 [1]: > 50 µM (active)
